The source of these data is patent publication US20080200441A1, “ESTROGEN RECEPTOR MODULATORS ASSOCIATED PHARMACEUTICAL COMPOSITIONS AND METHODS OF USE” (University of Southern California, priority 2007, published 2008).

For one test, the system named is MCF-7 cells. As to the kind of experiment: MCF-7 cell proliferation, MTT. The test is classed as cell-based, human. The settings on record: 3 days, serially diluted concentrations, MTT at 570 nm.
For test [1], the system named is rat primary hippocampal neurons. As to the kind of experiment: Intracellular calcium imaging in hippocampal neurons. The test is classed as cell-based. How it is done:
The [Ca^2+]i in hippocampal neurons was measured by ratiometric Ca^2+ imaging with the Ca^2+-sensitive fluorescent dye fura-2. Prior to imaging, hippocampal neurons were loaded with 2 μM fura-2 acetoxymethyl ester (fura-2 AM, Molecular Probes, Inc., Eugene, Oreg.) for 30-45 min at 37° C. in HEPES-Buffered Solution (HBS), containing (in mM): 100 NaCl, 2.0 KCl, 1.0 CaCl2, 1.0 MgCl2, 1.0 NaH2PO4, 4.2 NaHCO3, 12.5 HEPES and 10.0 glucose. Excess fura-2 AM dye was removed by washing with HBS and then the neurons were incubated in HBS for 30 min at 37° C. to equilibrate. The coverslip with fura-2 AM-loaded neurons was removed and attached to the coverslip clamp chamber MS-502S (ALA Scientific Instruments, Westbury, N.Y.) for the Ca^2+ imaging analysis. Neurons were placed on the stage of an inverted microscope (MT-2, Olympus) equipped with epifluorescence optics (20× Nikon), The perfusion solution is HBS and the perfusion system connected to the perfusion chamber was balanced using two variable speed pumps. Imaging was performed at room temperature. Neurons were perfused at a flow rate of 2 ml/min. Fura-2 was excited by a xenon light source at 340 and 380 nm. The emitted fluorescence was filtered through a 520 nm filter, captured with an intensified CCD camera (COHU) and analyzed with InCyt Im2 software (Intracellular Imaging, Cincinnati, Ohio). The concentration of Ca^2+ was calculated by comparing the ratio of fluorescence at 340 and 380 nm against a standard curve of known [Ca^2+].

The test system of test [2] is Bcl-2. To be noted: previously observed; cited from earlier work.
For a further test, the system named is ERK2. In words: ERK phosphorylation, Western immunoblotting. The settings on record: primary hippocampal neurons.
Test [3] deals with Bcl-2. In words: Bcl-2 expression, Western immunoblotting. To be noted: primary hippocampal neurons. On the technique in general: A western blot detects proteins with antibodies after separation by electrophoresis.
The test system of a further test is spinophilin. To be noted: primary neurons, earlier findings; cited from earlier work.
A further test relates to Bcl-XL. To be noted: previously observed; cited from earlier work.
The test system of test [4] is rat primary hippocampal neurons. The settings on record: previous reports; cited from earlier work.

`C[C@]12CCC3c4ccc(O)cc4CC(CCCCCCCCC[S+]([O-])CCCC(F)(F)C(F)(F)F)C3C1CC[C@@H]2O` (stereo partly shown) [ICI 182,780]: the MCF-7 cell proliferation entry with MCF-7 cells is reported as “promoted MCF-7 cell proliferation in a concentration dependent manner”. For the same compound, the intracellular calcium rise result in test [1] (compound alone) is reported as “directly induce intracellular calcium rise”. For the same compound, the “physiological glutamate-induced rise in calcium ion concentration” value in test [1] (physiological glutamate) is “potentiates the physiological glutamate-induced rise in calcium ion concentration”. In addition, the “excitotoxic glutamate-induced rise in intracellular calcium” value in test [1] (pretreated neurons, excitotoxic glutamate) was “attenuation of the glutamate-induced rise in intracellular calcium”. Moreover, the Bcl-2 expression entry with Bcl-2 [2] is given as “Upregulation”. Also, in the test with ERK2, the “phosphorylation of ERK” value is listed as “activate the phosphorylation of ERK”. Moreover, the “expression of antiapoptotic protein Bcl-2” value in the test with Bcl-2 [3] was “potentiate the expression of antiapoptotic protein Bcl-2”. Besides, the spinophilin expression entry with spinophilin is listed as “comparably effective to 17β-estradiol in upregulating spinophilin expression”. The Bcl-XL expression entry with Bcl-XL is “Upregulation”. Also, the “concentration of maximal neuroprotection” value in test [4] was 10 nM.
